Assay results: patent US11440932B2, “Surfactant compounds-clips for extraction and stabilization in solution of membrane proteins” (CENTRE NATIONAL DE LA RECHERCHE SCIENTIFIQUE, priority 2017, dated 2022)

Tests used:
AcrB = target: T1, AcrB (Escherichia coli, UniProt P31224); test: Extraction of AcrB from membranes (SDS-PAGE of supernatant); parameters: species or system bacterial; same expression system (E. coli C41DE3); settings: detergent 10 g/l unless indicated otherwise; 2 h at 4° C.
T1 construct: made in house; host or cells: E. coli C41(DE3)
T1 sequence (P31224 whole entry): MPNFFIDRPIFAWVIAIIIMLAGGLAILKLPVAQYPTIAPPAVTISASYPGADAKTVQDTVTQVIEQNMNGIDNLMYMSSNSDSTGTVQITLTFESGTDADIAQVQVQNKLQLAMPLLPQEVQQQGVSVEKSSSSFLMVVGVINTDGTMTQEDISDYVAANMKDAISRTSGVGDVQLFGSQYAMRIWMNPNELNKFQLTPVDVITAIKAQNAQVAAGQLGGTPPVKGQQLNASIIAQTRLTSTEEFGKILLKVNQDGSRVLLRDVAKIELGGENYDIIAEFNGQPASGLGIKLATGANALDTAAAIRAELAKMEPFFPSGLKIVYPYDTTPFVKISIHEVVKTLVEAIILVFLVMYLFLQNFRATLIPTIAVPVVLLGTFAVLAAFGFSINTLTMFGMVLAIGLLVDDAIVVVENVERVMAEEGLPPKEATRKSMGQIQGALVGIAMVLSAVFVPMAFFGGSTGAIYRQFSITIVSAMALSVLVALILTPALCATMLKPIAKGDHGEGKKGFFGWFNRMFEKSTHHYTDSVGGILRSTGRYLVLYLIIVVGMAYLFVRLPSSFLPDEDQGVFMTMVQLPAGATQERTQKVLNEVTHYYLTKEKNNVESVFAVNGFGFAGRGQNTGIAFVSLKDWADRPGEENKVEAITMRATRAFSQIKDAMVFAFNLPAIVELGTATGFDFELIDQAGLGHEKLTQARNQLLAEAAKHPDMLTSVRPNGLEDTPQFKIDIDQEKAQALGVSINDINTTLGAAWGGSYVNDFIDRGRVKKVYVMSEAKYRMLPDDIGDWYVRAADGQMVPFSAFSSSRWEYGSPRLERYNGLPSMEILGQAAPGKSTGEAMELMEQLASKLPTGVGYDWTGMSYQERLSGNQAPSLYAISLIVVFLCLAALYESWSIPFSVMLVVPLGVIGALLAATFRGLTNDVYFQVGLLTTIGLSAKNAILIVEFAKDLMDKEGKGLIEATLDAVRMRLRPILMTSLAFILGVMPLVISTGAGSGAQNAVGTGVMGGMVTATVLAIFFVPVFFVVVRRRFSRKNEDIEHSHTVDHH
In short: (§1)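 E. coli C41(DE3) membranes overexpressing BmrA (~25% of protein) or AcrB (~20%), at 2 g/l protein in 20 mM Tris-HCl pH 8.0, 100 mM NaCl, 15% glycerol with protease inhibitors, treated with detergent at 10 g/l unless stated otherwise for 2 h at 4° C. After 100 000×g centrifugation, 20 μg supernatant protein run on 10% SDS-PAGE, Coomassie-stained.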

[1] = Critical micelle concentration (CMC) by DPH fluorescence; type: physicochemical; settings: for CMC: 50 mM tris-HCl, pH 8.0
BmrA = target: T2, BmrA (Bacillus subtilis, UniProt O06967); test: Extraction of BmrA from membranes (SDS-PAGE of supernatant); parameters: species or system bacterial; overexpressed in E. coli C41DE3; settings: detergent 10 g/l unless indicated otherwise; 2 h at 4° C.
T2 construct: His tag; made in house; host or cells: E. coli C41(DE3)
T2 sequence (O06967 whole entry): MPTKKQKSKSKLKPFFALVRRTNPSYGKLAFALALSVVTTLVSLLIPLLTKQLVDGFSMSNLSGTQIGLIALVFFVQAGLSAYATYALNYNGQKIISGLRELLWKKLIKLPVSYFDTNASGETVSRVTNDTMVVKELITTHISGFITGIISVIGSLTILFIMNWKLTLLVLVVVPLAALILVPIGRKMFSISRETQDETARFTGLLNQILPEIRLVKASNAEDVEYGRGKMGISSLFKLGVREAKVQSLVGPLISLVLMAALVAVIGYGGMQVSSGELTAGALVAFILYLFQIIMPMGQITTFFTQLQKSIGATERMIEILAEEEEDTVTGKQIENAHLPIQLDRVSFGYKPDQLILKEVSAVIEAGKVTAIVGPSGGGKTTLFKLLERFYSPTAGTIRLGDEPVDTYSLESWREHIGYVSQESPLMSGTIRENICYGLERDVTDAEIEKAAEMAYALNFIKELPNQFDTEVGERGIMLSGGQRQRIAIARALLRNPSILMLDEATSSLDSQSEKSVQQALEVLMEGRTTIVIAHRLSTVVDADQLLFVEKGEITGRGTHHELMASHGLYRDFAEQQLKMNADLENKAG
In short: as §1

[2] = Diameter of micelles by dynamic light scattering (DLS); type: physicochemical; settings: for Ø, nm: estimated micelle diameter by DLS, 30 mM tris-HCl, pH 8.0
Experimental: FIG. 5 depicts the dynamic light scattering (DLS) of clips, in intensity (%, column A on the left) and in number (%, column B on the right), as a function of the […] (nm). The estimated diameters are indicated on each panel (column A). Columns A and B, from top to bottom: compound 3.7c (10 mM, 5×CMC), compound 3.7d (10 mM, 5×CMC), compound 3.7e (2 mM, […]), compound 3.7f (10 mM, 500×CMC), compound 3.7h (1 mM, 100×CMC), compound 3.7j (2 mM, 100×CMC), compound 3.9a (1 mM, 50×CMC).
Another physicochemical parameter of the micelles of detergents is their diameter, assuming that they are spherical. This dimension is obtained by the light scattering (DLS) technique.
Procedure. The molecules of the invention tested were prepared in a range of concentrations extending from 0.1 to 1000×CMC in 30 mM tris-HCl, pH 8.0 and neutralized at this pH. The solutions are filtered on 0.22 μm. The measurement is carried out on 100 μl, in triplicate on a Zetasizer Nano-S from Malvern Instruments.

Row | Structure (SMILES) | extraction of AcrB (AcrB) | CMC [1] [mM] | extraction of BmrA (BmrA) | Ø, nm [2] [nm] | CMC (breakage in the slope of DPH fluorescence, FIG. 4) ([1]; triplicates) [mM] | estimated diameter ([2]; DLS) [nm]
1 | CCCCCCCCCCCC(=O)N[C@@H](COCc1cn(CCO[C@@H]2OC(CO)[C@@H](O)C(O)C2O)nn1)C(=O)N[C@H](CCC(=O)O)C(=O)O (stereo partly shown) [Compound 3.7b] | do not extract | 1.5 | non-extracting |  |  | 
2 | CCCCCCCCCCCCCC(=O)N[C@@H](COCc1cn(CCO[C@@H]2OC(CO)[C@@H](O[C@H]3OC(CO)[C@@H](O)C(O)C3O)C(O)C2O)nn1)C(=O)N[C@H](CCC(=O)O)C(=O)O (stereo partly shown) [Compound 3.7e] | extracting | 2 | non-extracting | 3.5 | 2 | 
3 | CCCCCCCCCCCCCC(=O)N[C@@H](COCc1cn(CCO[C@@H]2OC(CO)[C@@H](O)C(O)C2O)nn1)C(=O)N[C@@H](CCC(=O)O)C(=O)NCC(=O)O (stereo partly shown) [Compound 3.7l] | extracting | 1 | extracting |  |  | 
4 | CCCCCCCCCCCCC(CCCCCCCCCCCC)C(=O)N[C@@H](COCc1cn(CCO[C@@H]2OC(CO)[C@@H](O)C(O)C2O)nn1)C(=O)N[C@H](CCC(=O)O)C(=O)O (stereo partly shown) [Compound 3.7j] | extracting | 0.02 | partially extracting | 60 |  | ~60
5 | CCCCCCCCCCCCCC(=O)N[C@@H](COCc1cn(CCOCCOCCOCCOCCOCCOC)nn1)C(=O)N[C@H](CCC(=O)O)C(=O)O [Compound 3.7g] |  | 1 | extracting |  |  | 
6 | CCCCCCCCCCCCCC(=O)N[C@@H](COCc1cn(CCO[C@@H]2OC(CO)[C@@H](O)C(O)C2O)nn1)C(=O)N[C@H](CCC(=O)O)C(=O)O (stereo partly shown) [Compound 3.7c] | extracting | 1 | extracting | 3.8 |  | 
